Values joined by “and” are separate entries in the source; they are usually repeats but may differ in a detail not shown here. Equal entries are not always repeated.
Assays:
SNAT1 and SNAT2 = molecular target: T1, SNAT1 and SNAT2 (Homo sapiens, UniProt Q96QD8); assay: FMP assay in HCC1806 clones C10 (ASCT2ko) and D126 (ASCT2ko, SNAT2ko); assay type: cell-based; conditions: 10 mM; HCC1806 wildtype and C10 cells
T1 construct: endogenous in cells; host or cells: HCC1806 clone C10 (ASCT2ko) and clone D126 (ASCT2ko, SNAT2ko), amino acid depleted for 24 h
T1 sequence (Q96QD8 1-506): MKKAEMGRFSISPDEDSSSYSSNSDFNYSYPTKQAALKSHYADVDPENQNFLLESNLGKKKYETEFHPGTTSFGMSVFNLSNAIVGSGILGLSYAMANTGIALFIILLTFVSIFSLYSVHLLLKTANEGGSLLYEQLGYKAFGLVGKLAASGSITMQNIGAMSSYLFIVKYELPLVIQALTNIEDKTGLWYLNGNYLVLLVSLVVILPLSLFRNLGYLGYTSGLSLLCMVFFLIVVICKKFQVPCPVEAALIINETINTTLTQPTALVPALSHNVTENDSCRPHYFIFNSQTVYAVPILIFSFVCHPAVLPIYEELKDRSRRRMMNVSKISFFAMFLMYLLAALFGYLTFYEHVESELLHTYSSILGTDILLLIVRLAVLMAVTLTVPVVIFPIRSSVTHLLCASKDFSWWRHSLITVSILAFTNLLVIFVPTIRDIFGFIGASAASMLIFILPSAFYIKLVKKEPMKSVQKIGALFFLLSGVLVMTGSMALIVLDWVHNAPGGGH

OVCAR3 cells = assay: Growth assay (IncuCyte confluence), OVCAR3; assay type: cell-based, human
Method in brief: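 OVCAR3 cells were seeded at about 3000 cells/well in 96-well plates in DMEM/F12 with 10% FBS and 2 mM glutamine for 24 h. They then received 300 μL/well of medium with compounds plus penicillin/streptomycin. Plates sat in an IncuCyte at 37°C and 5% CO2, and confluence was imaged every 6 h or at the endpoint once untreated controls passed 90%. Growth is given as % confluence, and curves were fitted with the Gompertz function in OriginPro.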

SKOV3 cells = assay: [14C]alanine uptake in non-depleted SKOV3 cells; assay type: cell-based, human; conditions: amino acid replete SKOV3 cells
Method: Functional characterisation of plasma membrane transporters in human cancer cells was determined at 37°C using an array of radiolabelled amino acid substrates. Modified Hanks HEPES-buffered salts solution (mHBSS; 137 mM NaCl; 5.4 mM KCl; 2.7 mM K2HPO4; 1 mM CaCl2; 0.5 mM MgCl2; 0.44 mM KH2PO4; 0.4 mM MgSO4; 5 mM D-glucose; 5 mM HEPES; pH 7.4) was used to wash and incubate cells where sodium dependent transport was measured, while N-methyl-D-glucamine (NMDG) and potassium salts substituted sodium in NMDG mHBSS to measure sodium independent uptake. For the assay, cells were seeded in 35 mm dishes and, once confluent, were washed thrice with warm mHBSS solution and incubated with mHBSS containing an 100 µM amino acid at a final specific activity of ≥2000 cpm/nmol (U-[^14C]amino acids were from PerkinElmer). After 6 min, cells were washed thrice with ice-cold mHBSS, lysed with 500 µl of 0.1 M HCl, detached with a cell scraper and triturated. A 400 µl aliquot was used for scintillation counting, while the remainder was saved for protein mass quantification by Bradford assay. Transport rates were normalised to the protein content of the culture dish.

FMP signal as substrate (SNAT1 and SNAT2) | Compound | Growth (Figure 6A) (OVCAR3 cells; concentration 1) | Growth (Figure 6A) (OVCAR3 cells; concentration 3) | Growth (Figure 6A) (OVCAR3 cells; concentration 10) | Growth (Figure 6A) (OVCAR3 cells; concentration 30) | Growth (Figure 6A) (OVCAR3 cells; concentration 100) | inhibition of [14C]alanine uptake (SKOV3 cells)
strong FMP signal | C[N+](C)(C)CC(=O)O [Betaine, betaine] |  |  |  |  |  | 
 | Cc1ccc(S(=O)(=O)N(C)c2ccsc2C(=O)NCc2ccccc2C(F)(F)F)cc1 [Compound 57_E, 3-(N-methyl (4-methylphenyl)sulfonamido)-N-(2-trifluoromethylbenzyl)thiophene-2-carboxamide] | 94.3 and 98.2 and 97.5 | 91.1 and 97.6 and 98.2 | 93.85 and 97.6 and 98.05 | 90.7 and 97.95 | 89.25 and 92.95 and 91.35 | did not inhibit any transporter in this cell line

— PMC9532951, “Identification and characterization of a novel SNAT2 (SLC38A2) inhibitor reveals synergy with glucose transport inhibition in cancer cells” (Frontiers in Pharmacology, 2022)
